What was measured:
[1] = system: p27; test: In-Vivo Xenograft Model: intratumor p27 levels (control); design: species or system nude mice; conditions: subcutaneously at 30 or 60 mg/kg/day for ten days
Protocol: HT1080 cells (human fibrosarcoma cells) were implanted subcutaneously in nude mice. After seven days, mice were administered compounds subcutaneously at 30 or 60 mg/kg/day for ten days. The tumors were then excised from mice and homogenized in Tris-HCl buffer containing a cocktail of proteinase inhibitors. Intratumor Bmi-1 levels were subsequently measured using the Bmi-1 ELISA assay of Example 1. Protein concentrations of the homogenates were measured with a Bio-Rad Protein assay kit and intratumor Bmi-1 levels were normalized to the protein concentrations. Treatment with the compound for ten days inhibited tumor growth by 35% as compared to the vehicle-treated control groups. […] Since p27 expression is not regulated by Bmi-1 activity, no changes in the levels of this protein were observed within treated tumors.

[2] = system: Bmi-1; test: Sandwich ELISA Assay (Bmi-1 ELISA in HT-1080 cells); type: cell-based, human
Summary of the method: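 Lysate Bmi-1 was quantified against a recombinant GST-Bmi-1 standard (0-8000 pg/mL) by sandwich ELISA read at OD450 with OD570 reference. The ELISA used mouse monoclonal capture, rabbit anti-Bmi-1, HRP anti-rabbit IgG and TMB. Before lysis, HT-1080 cells seeded at 8000/well were exposed to compounds for 40-48 h at 37°C with 0.5% final DMSO.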

[3] = system: Bmi-1; test: Cell Model Assay: Bmi-1 expression in KG1; type: cell-based; conditions: KG1 (acute myelogenous leukemia)
Protocol: Using assay conditions known to those skilled in the art, the ability of the compounds described herein to reduce Bmi-1 expression in HT1080 (fibrosarcoma), U87-MG (glioblastoma), T98G (glioblastoma), K562 (chronic myelogenous leukemia) and KG1 (acute myelogenous leukemia) cell lines was tested (at test compound concentrations calculated from the ELISA assay data shown in Example 1) compared to puromycin as a control to provide the EC50 values shown in Table 2. The term “ND” means that data was not determined.

[4] = system: MCL-Jeko; test: Mantle Cell Lymphoma Assay: cytotoxicity, Jeko; type: cell-based; conditions: MCL-Jeko, 72 hrs
Source text: MCL cell lines Jeko, Mino, and Rec-1 were provided by American Type Culture Collection: The Bioresource Center (Manassas, Va.). […] Carlsbad, Calif.) in T-75 culture flasks. Cell concentration was maintained between 2 to 3×10^5 cells/mL. Early passage cells (passages 2-4) were used for all experiments. Ficoll-Histopaque density sedimentation (Sigma Aldrich) was used for separation of debris and purification of cell lines prior to experiments. […] The cytotoxic effect of test compounds on the MCL-cell lines was assessed by measuring cell concentration and cell viability using a Beckman Coulter Vi-Cell Counter. Controls and treated cells were harvested and counted at day 3.

Row | SMILES | p27 levels within treated tumors [1] | IC50 [2] | EC50 [3] | Cell Concentration (×10^6) ([4]; 0.004 μM) | viability at 0.004 µM ([4]; 0.004 μM, read-out: Cell Viability (%)) | Cell Concentration (×10^6) ([4]; 0.037 μM) | viability at 0.037 µM ([4]; 0.037 μM, read-out: Cell Viability (%)) | Cell Concentration (×10^6) ([4]; 0.11 μM) | viability at 0.11 µM ([4]; 0.11 μM, read-out: Cell Viability (%)) | Cell Concentration (×10^6) ([4]; 0.33 μM) | viability at 0.33 µM ([4]; 0.33 μM, read-out: Cell Viability (%)) | Cell Concentration (×10^6) ([4]; 1 μM) | viability at 1 µM ([4]; 1 μM, read-out: Cell Viability (%)) | Cell Concentration (×10^6) ([4]; 3 μM) | viability at 3 µM ([4]; 3 μM, read-out: Cell Viability (%))
1 | COc1cc(Br)c(Nc2nc(-c3c(C)nc4ncccn34)cs2)c(Br)c1 [Cpd 1, N-(2,6-dibromo-4-methoxyphenyl)-4-(2-methylimidazo[1,2-a]pyrimidin-3-yl)thiazol-2-amine] | no changes | < 0.5 µM | 0.321 µM | – | – | – | – | – | – | – | – | – | – | – | –
2 | COc1ccc(Nc2nc(-c3c(C)nc4ncccn34)cs2)cc1 [Cpd 14, N-(4-methoxyphenyl)-4-(2-methylimidazo[1,2-a]pyrimidin-3-yl)thiazol-2-amine] | – | < 0.5 µM | – | 1.83 ± 0.03 ×10^6 | 74.9 ± 0.55% | 1.63 ± 0.05 ×10^6 | 69.4 ± 1.63% | 0.07 ± 0.01 ×10^6 | 6.5 ± 0.55% | 0.02 ± 0.00 ×10^6 | 1.9 ± 0.31% | 0.02 ± 0.00 ×10^6 | 1.6 ± 0.26% | 0.03 ± 0.00 ×10^6 | 2.5 ± 0.35%

— patent US8680113B2, “BMI-1 protein expression modulators” (PTC Therapeutics, Inc., priority 2008, dated 2014)
